# “Also recorded” adds a separate entry of the source.
# Experiments:
# [1] = test system: spontaneously hypertensive rat (SHR); experiment: Acute antihypertensive response (MAP, HR) to graded intravenous doses in anesthetized SHR; format: in vivo; conditions: for acute change in MAP and HR: graded intravenous doses (nitroxides 17-270 μmol/kg; SOD 34-540 U/kg)
# Protocol: Experiments were approved by the Georgetown University Animal Care and Use Committee. Male SHR weighing 250-350 g (Taconic, Germantown, N.Y.) were anesthetized with thiobutabarbital (Inactin; Sigma, St. Louis, Mo.) (10 mg/100 g) after halothane (Halocarbon Laboratories, River Edge, N.J.) induction. Rats received 0.9% NaCl at 2 ml/h IV up to the time of receiving drugs to maintain euvolemia. A femoral artery was cannulated with polyethelene (PE)-50 tubing connected to a digital blood pressure analyzer (Micro-Med, Louisville, Ky.). Animals were equilibrated for 45 min. Thereafter, a nitroxide (17 μmol/kg) was infused intravenously over 10 s. The mean arterial pressure (MAP) and heart rate (HR) were recorded over the first 5 min and at 10 and 15 min. This was followed by doses of 54, 72, 174, and 270 μmol/kg under similar conditions. The same protocol was followed with each nitroxide: T, 4-oxo-tempo (OT), 4-amino-tempo (AT), 3-carboxy-peroxyl (3-CTPY) (Aldrich, Milwaukee, Wis.), 3-carbomyl-proxyl (3-CP) (Sigma), and 4-trimethylammonium-2,2,6,6,-tetramethylpiperidine-1-oxyl iodide (CAT-1) (Molecular Probes, Eugene, Oreg.) (FIG. 3). Doses of bovine Cu/Zn SOD (MW 32,500; Oxis Research, Portland, Oreg.) were selected that had equivalent SOD mimetic activity in vitro to the doses of T used for intravenous studies: 34, 110, 140, 260, 350, and 540 U/kg. SOD injection followed a similar protocol to the nitroxides and was compared with vehicle-injected rats. Additional rats received injections of previously boiled SOD as a further control group. Six rats were studied in each group.
# The mean±SE changes in MAP and HR were calculated from the individual dose-response relations. The responsiveness was the maximum effect, and the sensitivity was the expected dose for ED50. Data were analyzed by ANOVA with post hoc testing by the Dunnett test, where appropriate. Statistical significance was taken as P<0.05.
# [2] = test system: O2−. generated by xanthine plus xanthine oxidase; experiment: Inhibition of O2−. generated by xanthine-xanthine oxidase in vitro (SOD mimetic activity, lucigenin chemiluminescence); format: biochemical; conditions: means ± SE
# [3] = test system: O2−. generated by xanthine plus xanthine oxidase; experiment: as above; format: biochemical; conditions: for Maximum inhibition, %: O2−. generated by xanthine-xanthine oxidase in vitro, means ± SE, 5 studies; for O2−. generated by a xanthine-xanthine oxidase reaction extinguished: tested in PBS at 10^−4 M
# Protocol: The SOD activities of Ns were evaluated in vitro for their efficacy in dampening O2^−. generated by xanthine (25 μmol/l) plus xanthine oxidase (9 IU/ml). Their lipid solubility was assessed by shaking the Ns in a 50:50 mixture of PBS (Ambion, Austin, Tex.) and chloroform (CHCl3; EM Science, Gibbstown, N.J.), taking an aliquot of the PBS phase, evaporating the CHCl3phase to dryness, reconstituting it in PBS, and assessing the SOD activities in the two solutions. O2^−. was assessed by chemiluminescence with 5 μM lucigenin (AutoLumatPlus LB 953; EG&G, Berthold, Germany). The reduction in the stable peak value for chemiluminescence for each N, relative to vehicle, defined the SOD mimetic activity.
# SOD activity by the nitroxides was assessed in vitro (Table 1). […] The ratio of the activity that partitioned into CHCl3 compared with PBS was examined.
# [4] = measured previously in the literature; cited from earlier work
# [5] = test system: mesenteric resistance arteries (MRAs) from EC-SOD −/− and +/+ mice; experiment: Superoxide as ethidium:DHE ratio (E/D) in dihydroethidium-loaded mesenteric resistance arteries; conditions: dihydroethidium-loaded vessels from EC-SOD −/− mice; tempol 10^−4 M, PEG-SOD 100 units·ml^−1, catalase 300 units·ml^−1
# Description: (§1) Reactive oxygen spice (ROS) and endothelin-1 (ET-1) contribute to angiotensin-induced hypertension. We used isolated mesenteric resistance arteries (MRAs) from EC-SOD knockout (−/−) mice (n=10) and EC-SOD wild type (+/+) mice (n=10), as a model to investigate the hypothesis that microvascular ET-1 and superoxide anion (O2.^−) interact to enhance contractility. Tension and O2.^− were quantitated in real time in dihydroethidium (DHE)-loaded MRAs in a myograph equipped with a dual-emission photon detection fluorescence system to measure ethidium (Eth): DHE ratio (E/D) as a direct readout of O2.^− activity. […] PEG-SOD normalized augmented ET-1 contraction (64±4% vs 71±3%; p=ns) and prevent an increase in E/D ratio in MRAs from −/− (0.6±0.5 vs 0.5±0.8, p=ns). In summary, ET-1 generates microvascular O2.^− that enhances its vasoconstrictive action.
# A current study contrasts the responses to endothelin-1 (ET-1) in mesenteric resistance vessels from EC-SOD (−/−) and (+/+) mice. […] Parallel studies of vascular superoxide in dihydroethidium-loaded vessels show enhanced conversion to ethidium, indicating enhanced superoxide formation, in vessels from EC-SOD −/−mice. […] We conclude that in the model system of SOD deficiency caused by gene deletion of EC-SOD in the mouse, tempol can correct enhanced contractions and enhanced oxidative stress. It is thereby envisioned as being effective in preventing hypertension and cardiovascular disease.
# [6] = test system: cremasteric microvessels in the anesthetized mouse; experiment: In vivo EDRF (acetylcholine-induced vasodilation) responses of cremasteric microvessels; conditions: 10^−4 M tempol in superfusate; EC-SOD −/− mice and mice infused with Ang II 400 ng·kg^−1·min^−1 sc × 12 days
# Protocol: FIG. 18: In vivo EDRF responses of cremasteric vessels are impaired by EC-SOD knockout or prolonged angiotensin II infusion but are restored by superfusion of tempol. Mean±SEM (n=c6 per group). Ang II infusion at 400 ng·kg^−1·min^−1 sc×12 days. T, 10^−4 M tempol in superfusate. Basal diameter 39±0.4 μm (similar in each group). Compared to EC-SOD +/+; *, p<0.05. Compared to vehicle infusion: †, p<0.05. All effects of tempol, p<0.005.
# Our current studies have shown that the SOD mimetic drug tempol, when superfused over cremasteric microvessels in the anesthetized mouse, increases that acetylcholine-induced vasodilation response. This effect of acetylcholine is reduced in the EC-SOD (−/−) mouse and in normal and EC-SOD (−/−) mice infused for 12 days with Ang II which causes oxidative stress that bioinactivates nitric oxide which is a mediator of this response. […] This is important since acetylcholine-induced vasodilation is a test of endothelium-dependent relaxation (EDR). Defects in EDR are related to oxidative inactivation of nitric oxide and underlie many CVD risk factors. Thus defects in EDR could be the focus for abnormal vascular responses and increased CVD events in subjects with the R213G SNIP of EC-SOD.
# [7] = test system: cell membranes; conditions: cited from earlier work
# [8] = test system: mesenteric resistance arteries (MRAs) from EC-SOD −/− and +/+ mice; experiment: Contraction of isolated mesenteric resistance arteries (myograph); conditions: vessels from EC-SOD −/− mice; bath addition, 20 min; tempol 10^−4 M, PEG-SOD 100 units·ml^−1, catalase 300 units·ml^−1
# Protocol: FIG. 19: Responses of mouse isolated mesenteric resistance vessles to endothelin-1: comparison of EC-SOD +/+ with −/−. (A) Contraction to endothelin-1, (B) Superoxide production with endothelin-1. Mean±SEM values (n=6-8 per group). Response to endothelin-1 in vessels incubated for 20 min with vehicle, tempol (10^−4 M), PEG-SOD (100 units·ml^−1), and catalase (300 units·ml^−1). Compared to vehicle, ***, p<0.005.
# as §1
Structure (SMILES),acute change in MAP and HR [1],"ED50, μmol/kg [2]","Maximum inhibition, % [3]",O2−. generated by a xanthine-xanthine oxidase reaction extinguished [3],redox midpoint potential E1/2 [4],effect on enhanced superoxide formation with ET-1 [5],maximal reduction in MAP (comparison between compounds) ([1]; graded intravenous doses),time to maximum reductions in MAP and HR ([1]; graded intravenous doses),acetylcholine-induced vasodilation (EDRF) response [6],permeation of cells [7],effect on enhanced contractions to ET-1 [8]
"CC1(C)CC(C(=O)O)C(C)(C)N1[O] (centres unmarked) [Compound 3-CTPY, 3-carboxy-peroxyl]",ineffective; also recorded: did not,∞†,15 ± 3 %,significantly lower fraction,,,,,,,
"CC1(C)CC(O)CC(C)(C)N1[O] [T, 4-hydroxy-2,2,6,6-tetramethyl-1 piperidinyloxy]",decreased MAP and HR acutely,,92 ± 1%,92%,800 mV,normalized,greater maximal fall in MAP with T than CAT-1; also recorded: greatest reductions in MAP,≤ 1 min,restored to normal,permeates cell membranes freely,normalized
